Bridges are numbered along the chain shown (N, C = ends). Roman numbers before positions name the chains, in order. Where no end group is shown, it is not given here.
T1: brain-derived NEP (Mus musculus, UniProt Q61391)
T1 construct: Clear supernatants were used as membrane-extracted fractions; from tissue; host or cells: adult mouse brain without cerebellum, Triton X-100-extracted membrane fraction
T1 sequence (Q61391 1-750): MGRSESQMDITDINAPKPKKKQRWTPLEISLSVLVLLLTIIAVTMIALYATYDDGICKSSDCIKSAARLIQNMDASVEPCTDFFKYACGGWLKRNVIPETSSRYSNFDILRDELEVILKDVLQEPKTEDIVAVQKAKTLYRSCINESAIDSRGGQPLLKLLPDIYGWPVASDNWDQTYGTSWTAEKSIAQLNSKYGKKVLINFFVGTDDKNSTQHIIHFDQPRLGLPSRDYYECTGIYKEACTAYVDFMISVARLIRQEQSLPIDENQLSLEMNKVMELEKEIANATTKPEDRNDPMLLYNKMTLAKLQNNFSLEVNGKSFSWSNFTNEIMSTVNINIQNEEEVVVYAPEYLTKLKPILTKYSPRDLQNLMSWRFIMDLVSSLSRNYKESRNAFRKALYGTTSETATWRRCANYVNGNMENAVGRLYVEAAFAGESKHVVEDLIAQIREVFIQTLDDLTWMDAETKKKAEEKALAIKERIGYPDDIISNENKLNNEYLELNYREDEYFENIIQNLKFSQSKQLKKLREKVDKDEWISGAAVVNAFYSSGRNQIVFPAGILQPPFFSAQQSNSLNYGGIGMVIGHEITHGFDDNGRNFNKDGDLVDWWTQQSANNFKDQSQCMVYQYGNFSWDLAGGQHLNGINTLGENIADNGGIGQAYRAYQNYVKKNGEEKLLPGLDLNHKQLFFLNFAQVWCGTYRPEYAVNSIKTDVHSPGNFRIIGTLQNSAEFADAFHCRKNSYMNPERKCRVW

B1: NL1: recombinant rat neuroligin-1, soluble ectodomain (R&D systems) (protein, UniProt Q62765 46-697, looked up)
extracellular domain: QKLDDVDPLVTTNFGKIRGIKKELNNEILGPVIQFLGVPYAAPPTGEHRFQPPEPPSPWSDIRNATQFAPVCPQNIIDGRLPEVMLPVWFTNNLDVVSSYVQDQSEDCLYLNIYVPTEDVKRISKECARKPGKKICRKGDIRDSGGPKPVMVYIHGGSYMEGTGNLYDGSVLASYGNVIVITVNYRLGVLGFLSTGDQAAKGNYGLLDLIQALRWTSENIGFFGGDPLRITVFGSGAGGSCVNLLTLSHYSEGNRWSNSTKGLFQRAIAQSGTALSSWAVSFQPAKYARILATKVGCNVSDTVELVECLQKKPYKELVDQDVQPARYHIAFGPVIDGDVIPDDPQILMEQGEFLNYDIMLGVNQGEGLKFVENIVDSDDGVSASDFDFAVSNFVDNLYGYPEGKDVLRETIKFMYTDWADRHNPETRRKTLLALFTDHQWVAPAVATADLHSNFGSPTYFYAFYHHCQTDQVPAWADAAHGDEVPYVLGIPMIGPTELFPCNFSKNDVMLSAVVMTYWTNFAKTGDPNQPVPQDTKFIHTKPNRFEEVAWTRYSQKDQLYLHIGLKPRVKEHYRANKVNLWLELVPHLHNLNDISQYTSTTTKVPSTDITLRPTRKNSTPVTSAFPTAKQDDPKQQPSPFSVDQRDYSTELS
modifications: extracellular domain

Tests used:
brain-derived NEP = target: T1, brain-derived NEP; assay: Neprilysin activity in NEP-enriched brain membrane fraction of 5XFAD mice; type: biochemical, mouse (5XFAD); conditions: 5XFAD mice membrane fraction; neurolide 10 μM; n = 6
Experimental: To measure NEP activity in brain tissue, whole brains without cerebellum were dissected from adult mice (C57Bl/6j or 5XFAD) and homogenized with a Teflon-glass homogenizer in five volumes (w/v) of ice-cold lysis buffer containing PBS (pH 7.4), 0.25 M sucrose and protease inhibitor cocktail (Complete™, EDTA-free, Roche Diagnostics, Indianapolis, IN). The homogenates were centrifuged at 9000 × g for 15 min at 4 °C. The supernatants were further centrifuged at 20,000 × g at 4 °C for 20 min. The resulting pellets were solubilized in resuspension buffer containing PBS (pH 7.4) and 1% Triton X-100 for 1 h on ice and again centrifuged at 20,000 × g at 4 °C for 20 min. Clear supernatants were used as membrane-extracted fractions. Protein concentrations of Triton-extracted membrane fractions were determined using the Pierce BCA Protein Assay kit (Thermo Fisher Scientific). The standard assay mixture consisted of membrane fraction containing 40 μg total protein diluted in 40 μl of dilution buffer, 10 μl of testing compound (NL1, neurolide or vehicle), and 50 μl of NEP substrate (5-FAM/QXL; Anaspec) in a total volume of 100 μl. The reaction was initiated by adding substrate to the assay mixture. […] Fluorescence was measured at Ex/Em = 485/535 nm every 20 min for 2 h. The data were expressed as percentage of relative activity of neprilysin.

WT and 5XFAD mice = assay: Novel object recognition task; type: in vivo, mouse; conditions: 10 mg/kg s.c. three times a week for 10 weeks
Experimental: At the age of 2 months, 5XFAD and WT mice were injected subcutaneously (s.c.) with either neurolide (10 mg/kg) or saline in a volume of 0.1 ml/10 g of body weight three times a week for 10 weeks.
The novel object recognition assay is based on the innate tendency of animals to differentially explore novel and familiar objects and consists of habituation, training, short-term (2 h) and long-term (24 h) memory retention sessions. On day 1, the mice were habituated to the test area (a 35 × 35 cm box with a floor divided into 16 squares). Each mouse was placed into a box without objects and allowed to explore it freely for 5 min. During a training session, a mouse was placed in the test box and exposed to 2 identical nontransparent glass objects placed in the box. During 5 min, locomotion and exploration time for both objects were recorded. Exploration of an object was defined as pointing the nose to the object at a distance of ≤ 1 cm and/or touching it with the nose. Climbing or sitting on the object was not considered exploration. Short-term memory retention was evaluated 2 h after the training session, whereas long-term memory retention was evaluated 24 h after the training session. During both sessions, mice were exposed to the familiar object and to a novel object. The exploration time for the familiar and novel objects and locomotion were recorded for 5 min. Mice failing to explore one or both objects in the training trial were excluded from the statistical analysis.

rats = conditions: cited from earlier work
recombinant rat NL1 = target: T2, recombinant rat NL1 (Rattus norvegicus, UniProt Q62765); assay: Surface plasmon resonance binding to immobilized NL1; conditions: SPR, KD for Aβ1-42 versus KD for NX1β
T2 construct: the extracellular domain of NL1 was immobilized on a sensor chip; purchased R&D systems (Abingdon, UK)
Experimental: Binding analysis was performed on a Biacore 2000 SPR biosensor (GE Healthcare) at 25 °C using HBS-P (10 mM HEPES, pH 7.4, 150 mM NaCl, 0.005% [v/v] Surfactant P20) supplemented with 3 mM CaCl2 as a running buffer. Approximately 2000 Resonance Units (RU) of NL1 was immobilized on a CM4 sensor chip at a flow rate of 5 μl/min by amine coupling. Binding to serially diluted recombinant NX1β, used as a positive control, was performed as previously described. Aβ1-42 was dissolved in anhydrous DMSO to a stock concentration of 3.21 mM followed by serial dilution in running buffer. Peptide was injected into the chip, and binding experiments were performed at a flow rate of 20 μl/min, followed by regeneration of sensor chip with 10 μl of 15 mM NaOH and 150 mM NaCl. After subtraction of blank control, the binding curves were analyzed based on a nonlinear curve fitting using a 1:1 Langmuir binding model and the software package BIAevaluation 4 (GE Healthcare). The apparent equilibrium constant (KD) was calculated as kd/ka, in which ka and kd are the apparent association and dissociation constants, respectively.

Row | affinity constant KD of NL1 to Aβ, times lower compared to NX1β (recombinant rat NL1) | Molecule | NEP activity compared to untreated 5XFAD control (brain-derived NEP) | recognition index, short-term memory (2 h) (WT and 5XFAD mice; 5XFAD mice, versus vehicle, p < 0.05) | recognition index, long-term memory (24 h) (WT and 5XFAD mice; WT and 5XFAD mice, same tendency as at 2 h) | recognition index, short-term memory (2 h) (WT and 5XFAD mice; WT mice, vehicle higher than neurolide, p < 0.01) | spatial memory deficits induced by NMDAR-antagonist MK801 (rats) | spatial learning, social behavior, and locomotor activity (rats; healthy rats)
1 |  | I: SEGNRWSNSTKGLFQRAKK-NH2 / II: SEGNRWSNSTKGLFQRAK / III: SEGNRWSNSTKGLFQRA / IV: SEGNRWSNSTKGLFQRA (amide I:18-IV:C, I:19-II:C, II:18-III:C; C-terminus assumed) [neurolide] | significant decrease | significantly enhanced | no longer statistically significant | impairs memory | counteracted spatial memory deficits | had no effect
2 | approximately 11 times | B1 |  |  |  |  |  | 
